# Activity calls are given as the source filed them. The rule behind the calls is not given here.
# Legend:
# Cathepsin G [1] = biological target: T1, Cathepsin G (Homo sapiens, UniProt P08311); test: Inhibition of Cathepsin G (CatG)
# T1 sequence (P08311 whole entry): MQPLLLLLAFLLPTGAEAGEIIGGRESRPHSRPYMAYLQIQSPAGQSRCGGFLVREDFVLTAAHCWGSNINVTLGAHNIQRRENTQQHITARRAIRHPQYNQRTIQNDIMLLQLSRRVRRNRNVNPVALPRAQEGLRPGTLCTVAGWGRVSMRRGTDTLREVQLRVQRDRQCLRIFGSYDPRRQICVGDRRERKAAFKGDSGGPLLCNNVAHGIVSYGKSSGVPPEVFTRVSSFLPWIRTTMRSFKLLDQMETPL
# Neutrophil elastase [2] = biological target: T2, Neutrophil elastase (Homo sapiens, UniProt P08246); test: In vitro inhibition of human leukocyte elastase.
# T2 sequence (P08246 whole entry): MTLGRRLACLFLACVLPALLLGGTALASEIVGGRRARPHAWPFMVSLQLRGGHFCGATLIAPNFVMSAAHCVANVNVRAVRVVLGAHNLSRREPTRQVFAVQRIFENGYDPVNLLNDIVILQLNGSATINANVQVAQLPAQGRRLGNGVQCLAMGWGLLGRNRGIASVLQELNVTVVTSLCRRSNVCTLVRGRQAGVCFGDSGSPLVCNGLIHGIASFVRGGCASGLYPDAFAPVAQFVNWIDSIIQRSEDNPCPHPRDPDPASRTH
# Cathepsin G [3] = biological target: T1, Cathepsin G; test: Compound was tested for the enzyme inhibitory activity against Cathepsin G
# Neutrophil elastase [4] = biological target: T2, Neutrophil elastase; test: Compound was tested for the enzyme inhibitory activity against Human Leukocyte elastase
# [5] = biological target: T3, Cathepsin G (Homo sapiens) (UniProt P08311); test: Inhibitory activity against Cathepsin G (CatG) at 62 uM concentration
# T3 sequence (whole entry): T1 sequence (P08311 whole entry)
# [6] = biological target: Chymotrypsinogen A (Bos taurus) (UniProt P00766); test: Inhibitory activity against Chymotrypsinogen at 62 uM concentration; NI = no inhibition; conditions: Sus scrofa
# [7] = biological target: T4, Chymotrypsin-like elastase family member 2A (Sus scrofa) (UniProt P08419); test: Inhibitory activity against Porcine Pancreatic Elastase (PPE) at 62 uM concentration
# T4 sequence (whole entry): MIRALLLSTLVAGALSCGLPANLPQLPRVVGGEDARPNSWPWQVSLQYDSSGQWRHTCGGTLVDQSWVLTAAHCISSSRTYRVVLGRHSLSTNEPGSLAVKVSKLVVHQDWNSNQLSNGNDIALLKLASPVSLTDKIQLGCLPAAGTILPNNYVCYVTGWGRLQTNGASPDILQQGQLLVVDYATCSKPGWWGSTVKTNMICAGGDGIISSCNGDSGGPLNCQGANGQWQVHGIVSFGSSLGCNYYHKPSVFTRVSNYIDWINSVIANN
# [8] = biological target: T5, Neutrophil elastase (Homo sapiens) (UniProt P08246); test: Inhibitory activity against Human Leukocyte Elastase (HLE) at 62 uM concentration
# T5 sequence (whole entry): T2 sequence (P08246 whole entry)
# Neutrophil elastase [9] = biological target: T2, Neutrophil elastase; test: HLE-inhibitor (Human Leukocyte Elastase) dissociation constant determined by using Dixon Plot
# Neutrophil elastase [10] = biological target: T2, Neutrophil elastase; test: Compound was tested for the enzyme inhibitory activity against Human Leukocyte Elastase (HLE)
# [11] = biological target: T3, Cathepsin G (Homo sapiens); test: Inhibitory activity against Cathepsin G (CatG) at 86 uM concentration
# [12] = biological target: T5, Neutrophil elastase (Homo sapiens); test: Inhibitory activity against Human Leukocyte Elastase (HLE) at 86 uM concentration; NI = no inhibition
# [13] = biological target: T4, Chymotrypsin-like elastase family member 2A (Sus scrofa); test: Inhibitory activity against Porcine Pancreatic Elastase (PPE) at 86 uM concentration; NI = no inhibition
# Cathepsin G [14] = biological target: T1, Cathepsin G; test: Compound was tested for the enzyme inhibitory activity against Cathepsin G (CatG); NI = no inhibition
# Cathepsin G [15] = biological target: T1, Cathepsin G; test: Compound was tested for the enzyme inhibitory activity against Cathepsin G; NI = no inhibition
# [16] = biological target: T3, Cathepsin G (Homo sapiens); test: Inhibitory activity against Cathepsin G (CatG) at 70 uM concentration
# [17] = biological target: Chymotrypsinogen A (Bos taurus) (UniProt P00766); test: Inhibitory activity against Chymotrypsinogen at 70 uM concentration; NI = no inhibition; conditions: Sus scrofa
# [18] = biological target: T4, Chymotrypsin-like elastase family member 2A (Sus scrofa); test: Inhibitory activity against Porcine Pancreatic Elastase (PPE) at 70 uM concentration; NI = no inhibition
# [19] = biological target: T5, Neutrophil elastase (Homo sapiens); test: Inhibitory activity against Human Leukocyte Elastase (HLE) at 70 uM concentration; NI = no inhibition
# [20] = biological target: Chymotrypsinogen A (Bos taurus) (UniProt P00766); test: Inhibitory activity against Chymotrypsinogen at 30 uM concentration
# [21] = biological target: T3, Cathepsin G (Homo sapiens); test: Inhibitory activity against Cathepsin G (CatG) at 30 uM concentration; NI = no inhibition
# [22] = biological target: T5, Neutrophil elastase (Homo sapiens); test: Inhibitory activity against Human Leukocyte Elastase (HLE) at 30 uM concentration
# [23] = biological target: T4, Chymotrypsin-like elastase family member 2A (Sus scrofa); test: Inhibitory activity against Porcine Pancreatic Elastase (PPE) at 30 uM concentration
# [24] = biological target: T3, Cathepsin G (Homo sapiens); test: Inhibitory activity against Cathepsin G (CatG) at 58 uM concentration
# [25] = biological target: Chymotrypsinogen A (Bos taurus) (UniProt P00766); test: Inhibitory activity against Chymotrypsinogen at 58 uM concentration
# [26] = biological target: T5, Neutrophil elastase (Homo sapiens); test: Inhibitory activity against Human Leukocyte Elastase (HLE) at 58 uM concentration
# [27] = biological target: T4, Chymotrypsin-like elastase family member 2A (Sus scrofa); test: Inhibitory activity against Porcine Pancreatic Elastase (PPE) at 58 uM concentration
# [28] = biological target: Chymotrypsinogen A (Bos taurus) (UniProt P00766); test: Inhibitory activity against Chymotrypsinogen at 56 uM concentration; NI = no inhibition
# [29] = biological target: T3, Cathepsin G (Homo sapiens); test: Inhibitory activity against Cathepsin G (CatG) at 56 uM concentration; NI = no inhibition
# [30] = biological target: T4, Chymotrypsin-like elastase family member 2A (Sus scrofa); test: Inhibitory activity against Porcine Pancreatic Elastase (PPE) at 56 uM concentration; NI = no inhibition
# [31] = biological target: T5, Neutrophil elastase (Homo sapiens); test: Inhibitory activity against Human Leukocyte Elastase (HLE) at 56 uM concentration; NI = no inhibition
compound,measurement,setting,value
C=CCc1ccc2c(c1O)C(=O)c1c(OC)cccc1C2=O,IC50,Cathepsin G [1],> 60 µM
same,IC50,Neutrophil elastase [2],11 µM
O=C1c2cccc(O)c2C(=O)c2c1ccc(Cc1ccccc1)c2O,IC50,Neutrophil elastase [2],13 µM
Cc1ccc2c(c1O)C(=O)c1ccccc1C2=O,IC50,Cathepsin G [3],> 60 µM
same,IC50,Neutrophil elastase [4],11 µM
O=C1c2cc(O)cc(O)c2C(=O)c2c(O)cc(CO)cc21,inhibition,[5],22%
same,inhibition,[6],inactive
same,inhibition,[7],4%
same,inhibition,[8],26%
CCCCOC(=O)Oc1cc(C)cc2c1C(=O)c1c(OC(=O)OCCCC)cc(OC)cc1C2=O,Ki,Neutrophil elastase [9],2.8 µM
same,IC50,Neutrophil elastase [10],2.5 µM
CCCCOC(=O)Oc1cc(C)cc2c1C(=O)c1c(OC(=O)OCCCC)cc(OCCC)cc1C2=O,Ki,Neutrophil elastase [9],0.15 µM
same,IC50,Neutrophil elastase [10],1.8 µM
CCCCCCc1ccc2c(c1O)C(=O)c1c(OC)cccc1C2=O,IC50,Cathepsin G [3],> 60 µM
same,IC50,Neutrophil elastase [4],6 µM
CC(C)Cc1ccc2c(c1O)C(=O)c1c(O)cccc1C2=O,IC50,Neutrophil elastase [2],8 µM
O=C(O)c1cc(O)c2c(c1)C(=O)c1cccc(O)c1C2=O,inhibition,[11],22%
same,inhibition,[12],inactive
same,inhibition,[13],inactive
COc1cccc2c1C(=O)c1c(ccc(CC(C)C)c1O)C2=O,IC50,Cathepsin G [14],No inhibition
same,IC50,Neutrophil elastase [2],11 µM
CCCCCc1ccc2c(c1O)C(=O)c1c(OC)cccc1C2=O,IC50,Cathepsin G [1],> 60 µM
same,IC50,Neutrophil elastase [2],6.1 µM
COc1c(C)ccc2c1C(=O)c1ccccc1C2=O,IC50,Cathepsin G [15],Not Active
same,IC50,Neutrophil elastase [4],> 60 µM
CCCCCc1ccc2c(c1O)C(=O)c1c(O)cccc1C2=O,IC50,Neutrophil elastase [2],3.9 µM
CCCCc1ccc2c(c1O)C(=O)c1c(OC)cccc1C2=O,IC50,Neutrophil elastase [2],5.9 µM
O=C1c2ccccc2C(=O)c2c1ccc(Cc1ccccc1)c2O,IC50,Cathepsin G [15],Not Active
same,IC50,Neutrophil elastase [4],6.6 µM
CC(=O)Oc1cccc2c1C(=O)c1c(OC(C)=O)cc(C(=O)O)cc1C2=O,inhibition,[16],5%
same,inhibition,[17],inactive
same,inhibition,[18],inactive
same,inhibition,[19],inactive
COc1cccc2c1C(=O)c1c(ccc(Cc3ccccc3)c1O)C2=O,IC50,Cathepsin G [14],No inhibition
same,IC50,Neutrophil elastase [2],6.7 µM
COc1cc(OC)c2c(c1)C(=O)c1cc(C)cc(OC)c1C2=O,inhibition,[20],6%
same,inhibition,[21],inactive
same,inhibition,[22],16%
same,inhibition,[23],4%
O=C(O)c1cc(O)c2c(c1)C(=O)c1cc(O)cc(O)c1C2=O,inhibition,[24],14%
same,inhibition,[25],3%
same,inhibition,[26],21%
same,inhibition,[27],9%
CCCc1ccc2c(c1O)C(=O)c1c(OC)cccc1C2=O,IC50,Cathepsin G [1],> 60 µM
same,IC50,Neutrophil elastase [2],8.7 µM
CCCc1ccc2c(c1O)C(=O)c1c(O)cccc1C2=O,IC50,Neutrophil elastase [2],4.2 µM
CC(=O)Oc1cccc2c1C(=O)c1c(OC(C)=O)cc(C)cc1C2=O,inhibition,[28],inactive
same,inhibition,[29],inactive
same,inhibition,[30],inactive
same,inhibition,[31],inactive

# Source: ChEMBL document CHEMBL1125455, “Novel anthraquinone inhibitors of human leukocyte elastase and cathepsin G” (J Med Chem, 1992)
